Results published in US10584124B2, “Crystalline forms” (Array BioPharma Inc., priority 2017, dated 2020).

Experiment: Primary salt screen of the compound of Formula II: XRPD post-cycling and post-stability (40° C., 75% RH overnight)
Type: physicochemical
Conditions: compound of Formula II + the acid given as label; for XRPD post-cycling: cycled RT/40° C. over 24 hours; for XRPD post-stability: 40° C. and 75% RH overnight
Method: The salt screen was performed as follows. […] In cases where stock solutions could not be attained, the acid was added neat to the solution of the compound of Formula II.
The samples were then temperature cycled between ambient (RT) and 40° C. in 4-hour cycles over 24 hours. Each mixture was filtered and isolated solids were analyzed (wet) by XRPD to determine crystallinity and form. Samples in which solid was not observed were stored uncapped to allow solvent evaporation. The remaining samples were placed in an oven at 40° C. and 75% RH overnight. The samples were then reanalyzed by XRPD to determine any changes in form or crystallinity. The observations and results, including the different diffractogram patterns observed during the screen, are shown in Tables 29-53, below, and FIGS. 24A-24B through 47A-47B.

XRPD post-cycling (IPA/water (10%)) | XRPD post-cycling (THF/water (1%)) | XRPD post-stability (from Acetone/water (10%)) | XRPD post-stability (from IPA/water (10%)) | XRPD post-stability (from MeCN/water (20%)) | XRPD post-stability (from THF/water (1%)) | XRPD post-cycling (EtOH/water (10%)) | XRPD post-stability (from EtOH/water (10%)) | SMILES | XRPD post-cycling (Acetone/water (10%)) | XRPD post-cycling (Dioxane/water (10%)) | XRPD post-cycling (MeCN/water (20%)) | XRPD post-stability (from Dioxane/water (10%))
Form 8 | Form 8 | Form 14 | Form 8 | Form 8 | Form 8 | – | – | N[C@@H](CC(=O)O)C(=O)O [L-Aspartic acid] | – | – | – | –
Amorphous | – | Amorphous | Amorphous | No solid | Form 15 | Amorphous | Amorphous | O=C(O)/C=C\C(=O)O [Maleic acid] | Amorphous | No solid | No solid | No solid
Form 2 | No solid | Amorphous | Form 2 | No solid | No solid | Amorphous | Amorphous | CS(=O)(=O)O [Methane sulfonic acid] | Amorphous | No solid | No solid | No solid
– | Form 5 | – | – | – | – | Form 2 | Form 2 | O=S(=O)(O)c1ccc2ccccc2c1 [Naphthalene-2-sulfonic acid] | – | – | – | –
Amorphous | No solid | – | Form 6 | No solid | No solid | Amorphous | Form 6 | O=C(O)C(=O)O [Oxalic acid] | Amorphous | Form 6 | No solid | Form 6

SMILES | XRPD post-cycling (IPA/water (10%)) | XRPD post-cycling (THF/water (1%)) | XRPD post-stability (from Acetone/water (10%)) | XRPD post-stability (from IPA/water (10%)) | XRPD post-stability (from MeCN/water (20%)) | XRPD post-stability (from THF/water (1%)) | XRPD post-cycling (EtOH/water (10%)) | XRPD post-stability (from EtOH/water (10%)) | XRPD post-cycling (Acetone/water (10%)) | XRPD post-cycling (Dioxane/water (10%)) | XRPD post-cycling (MeCN/water (20%)) | XRPD post-stability (from Dioxane/water (10%))
O=P(O)(O)O [Phosphoric acid] | Form 10 | Amorphous | – | Form 10 | No solid | Form 10 | – | Form 10 | Form 9 | No solid | No solid | No solid
O=S(=O)(O)O [Sulfuric acid] | Form 3 | No solid | No solid | Form 5 | No solid | No solid | No solid | No solid | No solid | No solid | No solid | No solid
Cc1ccc(S(=O)(=O)O)cc1 [p-Toluene sulfonic acid] | Amorphous | – | Form 4 | Form 4 | No solid | Form 4 | Amorphous | Amorphous | Form 4 | No solid | No solid | No solid
